Experiment [1] addresses muscarinic receptors. It is filed as binding, Hooded Lister rats. Conditions: 0.27nM 3H-QNB, rat cerebral cortex, tris pH 7.7, 37° C., 30 min.
Experiment [2] deals with muscarinic receptors. Nature of the experiment: Radio ligand binding: displacement of muscarinic agonist 3H-Oxotremorine-M (3H-OXO-M) from rat cerebral cortex membranes. Also on record: species or system Hooded Lister rats. To be noted: 2nM 3H-OXO-M, 2mM magnesium chloride, tris pH 7.7, 37° C., 30 min.

Where two headings read alike, the source gives them in different places.

For orientation: IC50 means the concentration needed to halve the response being measured. Low readings indicate greater potency, high ones weaker potency. In the case of `COCc1ncc(C23CCN(CC2)C3)o1` [Example E17, 4-(2-Methoxymethyl-1,3-oxazol-5-yl)-1-azabicyclo[2.2.1]-heptane], the IC50 came out at 60000 nM at muscarinic receptors [1] and 1050 nM at muscarinic receptors [2].

For `Nc1ncc(C2CN3CCC2C3)o1` (racemic) [Example E6, (±) exo and endo 3-(2-Amino-1,3-oxazol-5-yl)-1-azabicyclo[[2.2.1]heptane], the IC50 at muscarinic receptors [1] came to 10300 nM; at muscarinic receptors [2], 200 nM.

On to `OCc1ncc(C23CCCN(CC2)C3)o1` (racemic) [Example E10, (±)5-(2-Hydroxymethyl-1,3-oxazol-5-yl)-1-azabicyclo [3.2.1]octane], for which the IC50 was 7000 nM on muscarinic receptors [1] and 206 nM on muscarinic receptors [2].

Consider `COC(=O)c1ncc(C23CCCN(CC2)C3)o1` (racemic) [Example E9, (±)5-(2-Methoxycarbonyl-1,3-oxazol-5-yl)-1-azabicyclo [3.2.1]octane], for which the IC50 turned out to be 30500 nM against muscarinic receptors [1] and 2000 nM at muscarinic receptors [2].

Turning to `COCc1ncc(C23CCCN(CC2)C3)o1` (racemic) [Example E11, (±)5-(2-Methoxymethyl-1,3-oxazol-5-yl)-1-azabicyclo [3.2.1]octane], the IC50 against muscarinic receptors [1] amounted to 2600 nM; on muscarinic receptors [2] it was 220 nM.

As for `FCc1ncc(C23CCCN(CC2)C3)o1` (racemic) [Example E12, (±)5-(2-Fluoromethyl-1,3-oxazol-5-yl)-1-azabicyclo [3.2.1]octane], the IC50 came out at 440 nM against muscarinic receptors [1] and 5 nM on muscarinic receptors [2].

For the compound `Nc1ncc(C2CN3CCC2CC3)o1` (racemic) [Example E2, (±) 3-(2-Amino-1,3-oxazol-5-yl)-1-azabicyclo[2.2.2]octane], the IC50 came out at 17000 nM at muscarinic receptors [1] and 440 nM at muscarinic receptors [2].

Turning to `N#Cc1ncc(C23CCCN(CC2)C3)o1` (racemic) [Example E13, (±)5-(2-Cyano-1,3-oxazol-5-yl)-1-azabicyclo[3.2.1]octane], the values for the 50% inhibitory concentration (IC50) at muscarinic receptors [1] and on muscarinic receptors [2] were 2800 nM and 380 nM, respectively.

Consider `Nc1ncc(C23CCCN(CC2)C3)o1` (racemic) [Example E3, (±) 5-(2-Amino-1,3-oxazol-5-yl)-1-azabicyclo[3.2.1]-octane], for which the IC50 came to 3500 nM against muscarinic receptors [1] and 4 nM at muscarinic receptors [2].

For the compound `Nc1nc(C23CCCN(CC2)C3)cs1` (racemic) [Example E4, (±5-(2-Amino-1,3-thiazol-4-yl)-1-azabicyclo[3.2.1]octane], the values for the IC50 on muscarinic receptors [1] and on muscarinic receptors [2] were 5600 nM and 280 nM, respectively.

With `Nc1nc(C23CCCN(CC2)C3)co1` (racemic) [Example E1, (±) 5-(2-Amino-1,3-oxazol-4-yl)-1-azabicyclo[3.2.1]octane], the IC50 is 42000 nM on muscarinic receptors [1] and 250 nM at muscarinic receptors [2].

`Nc1ncc([C@H]2C[C@@H]3CCN(C3)C2)o1` (relative stereo) [Example E16, (±) exo 3-(2-Amino-1,3-oxazol-5-yl)-1-azabicyclo[3.2.1]octane]: the results for the IC50 against muscarinic receptors [1] and at muscarinic receptors [2] were 42000 nM and 560 nM, respectively.

For `Nc1ncc(C23CCN(CC2)C3)o1` [Example E5], the half-maximal inhibitory concentration (IC50) on muscarinic receptors [1] turned out to be 11000 nM; on muscarinic receptors [2] it was 18 nM.
